US8623861B2, “Method of treating demyelination diseases” (priority 2006, dated 2014)

Assays:
PC 12 cell = conditions: serum withdrawal or addition of hydrogen peroxide, β-amyloid peptide or MPP+; cited from earlier work
[1] = test system: neural progenitor cell cultures; conditions: in vitro
C57BL/6 mice [2] = test system: C57BL/6 mice
Experimental: (§1) To test whether quetiapine can protect mouse brain from cuprizone-induced demyelination, 8-week old mice were fed a diet of milled LabDiet® rodent chow (PMI nutrition international LLC, Brentwood, Mo., USA) containing 0.2% cuprizone for 5 weeks (w/w) (Sigma-Aldrich, St. Louis, Mo., USA) as previously described (Morell et al., 1998). […] The study included the following 4 groups (6-8 animals/group): group 1: control, fed with regular chow (con); group 2: pre-administrated with quetiapine (10 mg/kg/day in drinking water) for 1 week, then followed by 5 weeks of quetiapine administration with normal diet (que); group 3: fed for 5 weeks on a cuprizone-containing diet (cup) with regular tap water for drinking; group 4: pre-administrated with quetiapine (10 mg/kg/day in drinking water) for 1 week, then followed by 5 weeks of quetiapine treatment with cuprizone administration (cup+que).
(§2) To study the effect of quetiapine on the remyelination process, an additional two groups (6-8 animals/group) of mice were treated with 0.2% cuprizone in milled chow for 6 weeks, and then returned to a cuprizone-free diet (Matsushima and Morell, 2001). Upon resumption of the cuprizone-free diet, mice were fed with either vehicle (water) or quetiapine (10 mg/kg/day in water, que) for 2 weeks.
Immediately after the locomotor activity test, spatial working memory was assessed by recording spontaneous alternation behavior in a Y-maze comprised of three 30-cm compartments marked as A, B, and C arms. Spontaneous alternation behavior is based on the natural tendency of rodents to explore a novel environment. In a Y-maze, mice tend to explore the maze by systematically entering each arm. For efficient alternation, mice are required to know which arms have already been visited. Therefore, alternation behavior can be regarded as a measure involving spatial working memory. […] Each mouse was placed at the end of one arm and allowed to move freely through the maze during an 8-min period. The total number and series of arm entries were recorded visually. The number of overlapping entrance sequences (e.g., ABC, BCA) was defined as the number of alternations. The effect was calculated as the percentage of alternation according to the following formula: Percent alternation=(number of alternations)/(total number of arm entries-2)×100 (Wall et al., 2002). Total entries were scored as an index of ambulatory activity in the Y-maze, and mice showing scores below six entries would be excluded.

C57BL/6 mice [3] = conditions: all groups (con, que, cup, cup+que); data not shown
Experimental: as §1, §2

BDNF = conditions: Xu et al., 2002; Luo et al., 2004; cited from earlier work
rats = conditions: He et al., 2005; cited from earlier work
[4] = He et al., 2006; Martin et al., 2005; cited from earlier work
C57BL/6 mice [5] = test system: C57BL/6 mice; remark: listed apart in the source
Experimental: as §1, §2
At the end of their treatment period, mice were anaesthetized with pentobarbital sodium at 50 mg/kg and perfused intracardially with 0.01 M PBS followed by 4% paraformaldehyde in PBS, and the brains were post-fixated overnight in 4% paraformaldehyde. Brain tissues were then rinsed 3 times with 0.01 M PBS and cryoprotected in 30% sucrose at 4° C. for one day and frozen at −80° C. for immunostaining. Serial coronal sections were dissected between levels 1 to −1 mm bregma, as defined in the mouse brain atlas of Franklin and Paxinos (Franklin and Paxinos, 1997). Demyelination was evaluated in frozen sections (30 μm) of the corpus callosum using Luxol fast blue with periodic acid-Schiff reaction. Floating frozen sections (30 μm) were incubated with 0.3% of H2O2 in 0.01 M PBS for 30 min at room temperature (RT) for quenching endogenous peroxidase activity, then blocked with 10% goat serum/PBS or 10% rabbit serum (for MBP staining) for 1 hour at RT, and then incubated overnight with the primary antibody(s) diluted in the blocking solution. After rinsing, the sections were incubated with the appropriate biotin-conjugated secondary antibody (1:1000; Vector Laboratories, Burlingame, Calif.) for 1 hour at RT. Sections were then developed with the avidin biotin complex kit (Vector Laboratories, Burlingame, Calif.) and the antibodies were visualized with DAB chromogen (Sigma-Aldrich, St. Louis, Mo.).
A goat polyclonal antibody directed against MBP (1:250; Santa Cruz Biotechnology, CA) was used to detect myelin. A rabbit anti-pi isoform of glutathione S-transferase (GST-pi, 1:500; Stressgen, Victoria, BC, Canada) was used as a marker for mature oligodendrocytes (Mason et al., 2004); Ness et al., 2005). The rabbit polyclonal NG2 antibody (1:200; Chemicon, Temecula, Calif.) was used as a marker for oligodendrocyte progenitors (Nishiyama et al., 1996).
For GST-pi and NG2 quantification, three digital pictures from the coronal section from each animal (including the middle line and the two edges of the corpus callosum in each section) were examined. Cell counts are expressed as the mean number of positive cells counted in three coronal sections from two different areas, 500 μm apart, between 1 to −1 mm bregma, following the mouse brain atlas of Franklin and Paxinos (Franklin and Paxinos, 1997). Results are expressed as the average of at least 6 mice per group. For MBP staining analysis, three digital pictures from the coronal section (including cerebral cortex) of each animal were examined, at least 6 animals of each group.

[6] = 2 weeks of recovery from cuprizone, quetiapine 10 mg/kg/day in water vs. vehicle (water)
[7] = 0.2% cuprizone 5 weeks with quetiapine co-administration vs. cuprizone alone
[8] = quetiapine alone with normal diet vs. control

## OCCOCCN1CCN(C2=Nc3ccccc3Sc3ccccc32)CC1 [quetiapine]
PC 12 cell
  PC 12 cell death: reduce the PC 12 cell death
[1]
  proliferation and differentiation of oligodendrocytes: promoted the proliferation and differentiation of oligodendrocytes
C57BL/6 mice [2]; 0.2% cuprizone 5 weeks, co-administration of quetiapine 10 mg/kg/day p.o.
  total number of arm entries in Y-maze: decreased the rise of the total number of arm entries induced by cuprizone
C57BL/6 mice [2]; 0.2% cuprizone 5 weeks, co-administration of quetiapine 10 mg/kg/day p.o., ++p<0.01 vs. cuprizone
  impairment of spontaneous alternation behavior in the Y-maze: significantly attenuated the impairment of spontaneous alternation behavior
C57BL/6 mice [2]; [6]
  memory impairment in Y-maze during remyelination: did not appear to improve memory impairment
  total arm entries in the Y-maze during remyelination: did not appear to improve memory impairment or alter the total arm entries
C57BL/6 mice [3]
  locomotor activity: no significant difference among groups
BDNF
  expression of BDNF in rat hippocampus after immobilization stress: attenuate the immobilization stress-induced decrease in the expression of BDNF
rats
  short- and long-term behavioral consequences of chronic dl-amphetamine: modulate the short- and long-term behavioral consequences
[4]
  memory deficits induced by phencyclidine and kainic acid: could reverse memory deficits
C57BL/6 mice [5]; 0.2% cuprizone 5 weeks with quetiapine co-administration
  loss of GST-pi+ mature oligodendrocytes in the corpus callosum: did not reverse the loss of mature oligodendrocytes
C57BL/6 mice [5]; [7]
  demyelination in LFB-PAS staining: showed the same trend as MBP staining
  number of NG2+ cells within the demyelinated areas: dramatically decreased the number of NG2+ cells
  reduction of demyelination in MBP staining: 35%
C57BL/6 mice [5]; 2-week recovery from cuprizone, quetiapine vs. vehicle (water)
  remyelination in demyelinated lesions (MBP and LFB-PAS): no difference between the vehicle (water) and quetiapine treatment on remyelination
C57BL/6 mice [5]; 2 weeks recovery from cuprizone, quetiapine vs. water
  NG2+ cells after recovery: had little effect on this change
C57BL/6 mice [5]; 2 weeks recovery from demyelination, quetiapine vs. water, +p<0.05 vs. water
  GST-pi+ mature oligodendrocytes during remyelination: dramatically increased
C57BL/6 mice [5]; quetiapine alone with normal diet
  NG2+ cells, quetiapine alone: Few NG2+ cells were observed
C57BL/6 mice [5]; [8]
  GST-pi+ cells, quetiapine alone: had no difference
  myelination (MBP staining), quetiapine alone: show no difference on myelination

## Cc1nc2n(c(=O)c1CCN1CCC(c3noc4cc(F)ccc34)CC1)CCCC2 [risperidone]
PC 12 cell
  PC 12 cell death: reduce the PC 12 cell death
